Results reported in ChEMBL document CHEMBL1770053, “Design of novel and potent cPLA2α inhibitors containing an α-methyl-2-ketothiazole as a metabolically stable serine trap” (Bioorg Med Chem Lett, 2011).

What was measured:
[1] = Inhibition of recombinant cytosolic PLA2alpha assessed as inhibition of cleavage of soluble fluorogenic substrate
[2] = Inhibition of cytosolic PLA2alpha in human differentiated HL60 cells assessed as inhibition of A23187-induced [3H]-arachidonate release; format: cell-based; conditions: HL-60
[3] = Clearance in rat at 2 mg/kg, iv; format: ADME, organism-based; design: dose 2 mg/kg, route intravenous; conditions: in vivo
[4] = Half life in rat plasma at 2 mg/kg, iv; format: ADME, organism-based; design: dose 2 mg/kg, route intravenous
Hepatocyte = assay: Intrinsic clearance in rat hepatocytes; format: ADME, cell-based, Liver
[5] = Volume of distribution at steady state in rat at 2 mg/kg, iv; format: ADME, organism-based; design: dose 2 mg/kg, route intravenous; conditions: in vivo, read-out: Vdss

Compound	IC50 [1] [nM]	IC50 [2] [nM]	clearance [3] [mL/min/kg]	half-life [4] [h]	CL (Hepatocyte) [µL/min]	Vd [5] [L/kg]
O=C(COc1ccc(SCCCCCc2ccccc2)cc1)c1nccs1	1000	> 10000				
O=C(COc1ccc(SCCCCCc2ccccc2)cc1)c1ncc[nH]1	> 10000					
Cn1ccnc1C(=O)COc1ccc(SCCCCCc2ccccc2)cc1	> 10000					
Cn1c(C(=O)COc2ccc(SCCCCCc3ccccc3)cc2)nc2ccccc21	> 10000					
O=C(COc1ccc(SCCCCCc2ccccc2)cc1)c1nc2ccccc2s1	1000					
O=C(O)c1ccc2nc(C(=O)COc3ccc(SCCCCCc4ccccc4)cc3)[nH]c2c1	2700	3700				
O=C(O)COc1ccc2nc(C(=O)COc3ccc(SCCCCCc4ccccc4)cc3)[nH]c2c1	> 10000	> 10000				
O=C(O)c1ccc2oc(C(=O)COc3ccc(SCCCCCc4ccccc4)cc3)nc2c1	140	3600	> 200	< 0.2	35	
O=C(O)c1ccc2nc(C(=O)COc3ccc(SCCCCCc4ccccc4)cc3)sc2c1	80	1600			28	
COc1ccc2nc(C(=O)COc3ccc(SCCCCCc4ccccc4)cc3)sc2c1	> 10000					
Cc1nc(C(=O)COc2ccc(SCCCCCc3ccccc3)cc2)sc1C(=O)O	300	1100			11	
Cc1nc(C(=O)COc2ccc(SCCCCCc3ccccc3)cc2)sc1CCC(=O)O	500	500				
Cc1nc(C(=O)COc2ccc(SCCCCCc3ccccc3)cc2)sc1/C=C/C(=O)O	4300	3000				
Cc1nc(C(=O)COc2ccc(SCCCCCc3ccccc3)cc2)sc1CCCC(=O)O	80	500	71	0.2		0.4
O=C(O)CCCc1csc(C(=O)COc2ccc(OCCCCCc3ccccc3)cc2)n1	2000	6000				
Cc1nc(C(=O)COc2ccc(SCCCCCc3ccccc3)cc2)sc1CCO	280	1300			31	
Cc1nc(C(=O)COc2ccc(OCCCCCc3ccccc3)cc2)sc1CCCC(=O)O	240	1200			20	
Cc1nc(C(=O)COc2ccc(SCc3ccccc3)cc2)sc1CCCC(=O)O	3000	2000				
CCCCCCCCCCS(=O)(=O)c1ccc(OCC(=O)c2nc(C)c(CCCC(=O)O)s2)cc1	300	200			41	
CCCCCCCCCCSc1ccc(OCC(=O)c2nc(C)c(CCCC(=O)O)s2)cc1	40	230				
Cc1nc(C(=O)C(C)Oc2ccc(SCCCCCc3ccccc3)cc2)sc1CCCC(=O)O (stereo unspecified)	200	700				
Cc1nc(C(=O)C(C)(C)Oc2ccc(SCCCCCc3ccccc3)cc2)sc1CCCC(=O)O	6700	> 10000				
CCC(Oc1ccc(SCc2ccc(Cl)cc2)cc1)C(=O)c1nc(C)c(CCCC(=O)O)s1 (stereo unspecified)	7900					
Cc1nc(C(=O)C(Oc2ccc(SCCCCCc3ccccc3)cc2)C(C)C)sc1CCCC(=O)O (stereo unspecified)	4400	5600				
Cc1nc(C(=O)C(Oc2ccc(SCCCCCc3ccccc3)cc2)c2ccccc2)sc1CCCC(=O)O (stereo unspecified)	3600	3200				
Cc1nc(C(=O)C(C)Oc2ccc(OCCCCCc3ccccc3)cc2)sc1CCCC(=O)O (stereo unspecified)	700	2000	10.5	1.25	10	0.35
Cc1nc(C(=O)C(C)Oc2ccc(SCc3ccc(Cl)cc3)cc2)sc1CCCC(=O)O (stereo unspecified)	1500	1500	10.5	1.15		0.55
Cc1nc(C(=O)[C@H](C)Oc2ccc(SCCCCCc3ccccc3)cc2)sc1CCCC(=O)O	> 1000					
Cc1nc(C(=O)[C@@H](C)Oc2ccc(SCCCCCc3ccccc3)cc2)sc1CCCC(=O)O	200				8	
O=C(COc1ccc(SCCCCCc2ccccc2)cc1)COc1ccc(C(=O)O)cc1	80	1500				
